Data taken from patent US20080070973A1, “Compounds having activity at the GlyT1 transporter” (priority 2006, published 2008).
Where two headings read alike, the source gives them in different places.

How the values were obtained:
[1] = target: T1, GlyT1 transporter (Homo sapiens, UniProt P48067); test: GlyT1 transporter [3H]-glycine uptake SPA assay in HEK293 cells; assay type: cell-based; details: for IC50: HEK293 cells expressing the Glycine (Type 1) transporter
T1 construct: expressed in transfected cells
T1 sequence (P48067 1-706): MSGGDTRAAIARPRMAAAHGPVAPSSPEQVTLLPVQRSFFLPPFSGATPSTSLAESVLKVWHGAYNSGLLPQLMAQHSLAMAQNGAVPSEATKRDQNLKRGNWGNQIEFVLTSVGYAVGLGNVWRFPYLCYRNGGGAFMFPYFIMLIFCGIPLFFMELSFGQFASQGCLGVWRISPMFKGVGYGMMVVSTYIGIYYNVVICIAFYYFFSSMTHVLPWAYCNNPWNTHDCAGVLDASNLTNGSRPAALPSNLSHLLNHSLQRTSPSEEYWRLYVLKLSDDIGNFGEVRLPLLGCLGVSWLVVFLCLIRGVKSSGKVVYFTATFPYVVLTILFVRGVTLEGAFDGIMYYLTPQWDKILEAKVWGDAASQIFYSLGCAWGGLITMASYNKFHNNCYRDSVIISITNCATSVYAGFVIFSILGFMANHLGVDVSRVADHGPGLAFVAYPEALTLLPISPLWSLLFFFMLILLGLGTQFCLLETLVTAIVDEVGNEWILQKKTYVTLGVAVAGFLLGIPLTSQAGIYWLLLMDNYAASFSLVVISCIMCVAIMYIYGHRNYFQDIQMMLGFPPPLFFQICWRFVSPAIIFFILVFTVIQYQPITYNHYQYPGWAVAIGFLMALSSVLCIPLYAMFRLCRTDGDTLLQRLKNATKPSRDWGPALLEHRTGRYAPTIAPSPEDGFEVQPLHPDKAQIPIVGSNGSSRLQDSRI
Experimental: The affinities of the compounds of this invention for the GlyT1 transporter were determined by the following assay:
HEK293 cells expressing the Glycine (Type 1) transporter were grown in cell culture medium [DMEM/NUT mix F12 containing 2 mM L-Glutamine, 0.8 mg/mL G418 and 10% heat inactivated fetal calf serum] at 37° C. and 5% CO2. Cells grown to 70-80% confluency in T175 flasks were harvested and frozen. For the assay, cells were defrosted and resuspended at 1.32×10^6 cells/mL in assay buffer [140 mM NaCl, 5.4 mM KCl, 1.8 mM CaCl2, 0.8 mM MgSO4, 20 mM HEPES, 5 mM glucose and 5 mM alanine, pH 7.4]. Compounds were serially diluted either 3-fold or 4-fold in DMSO from a top concentration of 2.5 mM with each compound giving a 11 data point dose-response. 100 nL of compound at each concentration was added to the assay plate. An equal volume of Leadseeker™ WGA SPA beads (12.5 mg/ml suspended in assay buffer) was added to the cell suspension (1.32×106) and 5 uL of the cell/bead suspension transferred to each well of a LV384-well white solid bottom plate (3300 cells/well) containing 100 nL of test compounds. Substrate (5 uL) was added to each well [1:100 dilution of [3H]-glycine stock in assay buffer containing 2.5 uM glycine). Final DMSO concentration was 1% v/v. Data was collected using a Perkin Elmer Viewlux™. pIC50 values were determined using ActivityBase™.

[2] = target: T2, GlyT2 (Homo sapiens, UniProt Q9Y345); test: Affinity for GlyT1 compared with GlyT2 (statement, no method given); details: qualitative statement on the parent compound; no value given
T2 sequence (Q9Y345 1-797): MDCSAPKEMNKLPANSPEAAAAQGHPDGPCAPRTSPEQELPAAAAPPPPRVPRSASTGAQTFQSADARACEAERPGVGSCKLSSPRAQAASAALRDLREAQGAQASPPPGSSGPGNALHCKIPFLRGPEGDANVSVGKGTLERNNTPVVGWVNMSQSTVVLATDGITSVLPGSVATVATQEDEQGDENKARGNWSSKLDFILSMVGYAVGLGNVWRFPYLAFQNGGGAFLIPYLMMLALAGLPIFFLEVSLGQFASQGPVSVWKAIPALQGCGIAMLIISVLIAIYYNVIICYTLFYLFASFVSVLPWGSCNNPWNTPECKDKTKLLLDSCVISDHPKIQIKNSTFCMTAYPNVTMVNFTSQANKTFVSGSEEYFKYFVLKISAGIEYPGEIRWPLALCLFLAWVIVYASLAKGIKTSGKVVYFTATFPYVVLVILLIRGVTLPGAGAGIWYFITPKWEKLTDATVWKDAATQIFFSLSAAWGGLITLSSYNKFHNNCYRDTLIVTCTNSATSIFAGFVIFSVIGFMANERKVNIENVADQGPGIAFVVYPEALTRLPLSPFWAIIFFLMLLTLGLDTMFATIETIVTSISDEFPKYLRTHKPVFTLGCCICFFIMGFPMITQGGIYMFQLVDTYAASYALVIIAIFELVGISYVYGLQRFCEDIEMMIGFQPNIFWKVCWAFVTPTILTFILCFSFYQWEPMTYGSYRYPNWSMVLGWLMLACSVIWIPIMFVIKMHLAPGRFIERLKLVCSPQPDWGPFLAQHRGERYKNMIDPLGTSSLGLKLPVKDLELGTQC

COc1cc(C(F)(F)F)cc(C(F)(F)F)c1C(=O)NC(c1ccccc1)C(C)(C)N1CCCC1 (stereo not shown) [2-(methyloxy)-N-[2-methyl-1-phenyl-2-(1-pyrrolidinyl)propyl]-4,6-bis(trifluoromethyl)benzamide]
inhibition of the glycine transporter type GlyT1 (result in words) ([1]; qualitative statement on the parent compound, no value given): inhibitor of the glycine transporter type GlyT1 | affinity for GlyT1 relative to GlyT2 (selectivity, result in words) [2]: greater affinity for GlyT1 than for GlyT2

COc1cc(C(F)(F)F)cc(C(F)(F)F)c1C(=O)N[C@H](c1ccccc1)C(C)(C)N1CCCC1 [R-(−)-2-(Methyloxy)-N-[2-methyl-1-phenyl-2-(1-pyrrolidinyl)propyl]-4,6-bis(trifluoromethyl)benzamide 1,5-heminapadisylate]
IC50 ([1]; n=1, read-out: pIC50 at the GlyT1 transporter (converted)): 5.01 nM

COc1cc(C(F)(F)F)cc(C(F)(F)F)c1C(=O)N[C@H](c1ccccc1)C(C)(C)N1CCCC1 [R-(−)-2-(Methyloxy)-N-[2-methyl-1-phenyl-2-(1-pyrrolidinyl)propyl]-4,6-bis(trifluoromethyl)benzamide monosuccinate]
IC50 ([1]; n=5, read-out: average pIC50 at the GlyT1 transporter (converted)): 15.8 nM
